The values that follow come from US20210060016A1, “ANTICANCER AGENT” (JAPANESE FOUNDATION FOR CANCER RESEARCH, priority 2017, published 2021).

One assay has as its target T1, tankyrase 2 (Homo sapiens, UniProt Q9H2K2).
T1 construct: tankyrase 2 (613-1, 116aa, ANK5+SAM+PARP); made in house; host or cells: cell-free protein expression system
The assay can be described thus: Tankyrase inhibitory activity test (ELISA, auto-poly(ADP-ribosyl)ation), TNKS2. Type of assay: biochemical. To be noted: Flag-tagged tankyrase 2 (ANK5+SAM+PARP), read-out: TNKS2 (inhibitory activity against tankyrase 2), IC50 rating. How it is done: (§1) The enzymatic activity of tankyrase 1 and the enzymatic activity of tankyrase 2 were measured by the ELISA method based on assessment of auto-poly(ADP-ribosyl)ation to evaluate the tankyrase inhibitory activity of the compound prepared in each of Compound Examples (test compound) (inhibitory activity against tankyrase 1 (TNKS1) and inhibitory activity against tankyrase 2 (TNKS2)). First, Flag-tagged tankyrase 1 (1,024-1, 327aa, SAM+PARP) and tankyrase 2 (613-1, 116aa, ANK5+SAM+PARP) were synthesized with a cell-free protein expression system, and diluted with a Tris buffer solution (50 mM Tris-HCl (pH 8.0), 150 mM NaCl, 10% glycerol). 50 μL of the diluted tankyrase 1 or tankyrase 2 was added to a plate with an anti-FLAG M2 monoclonal antibody immobilized thereon (Anti-FLAG High-Sensitivity M2-Coated Plate) (Sigma-Aldrich), and the mixture was left to stand overnight at 4° C. Thereafter, the plate was washed four times with a PBS (PBST) buffer containing 0.1% TritonX-100.
(§2) Subsequently, the test compound diluted with an assay buffer (50 mM Tris-HCl (pH 8.0), 4 mM MgCl2, 0.2 mM DTT) (DMSO was used as a control) was added to each well of the plate, and the mixture was left to stand at room temperature for 10 minutes. Thereafter, a biotin-labeled NAD solution (225 μM NAD, 25 μM 6-Biotin-17-NAD (Travigen, Inc.)) was added and mixed as a donor substrate, and the mixture was reacted at 30° C. for 45 minutes. To blank wells was added distilled water instead of the biotin-labeled NAD solution. After the reaction, the plate was washed with a PBST buffer four times. Thereafter, HRP (horseradish peroxidase)-labeled streptavidin (Travigen, Inc.) was diluted with a PBS buffer by 1,000 times, and added to each well, and the mixture was reacted at room temperature for 20 minutes. The plate was washed with a PBST buffer four times, a chemiluminescent substrate solution TACS-Sapphire (Travigen, Inc.) was then added to each well, the mixture was reacted at room temperature for 20 minutes, and thechemiluminescence intensity was measured using a chemiluminescence measuring apparatus.
(§3) The residual enzymatic activity in the presence of the test compound was determined from the following expression. On the basis of the residual enzymatic activity at each of multiple concentrations of the test compound, the enzyme inhibitory activity was calculated in terms of a 50%-inhibition concentration (IC50 value) using data analysis software Origin (LightStone Corp.). Residual activity (%)={(chemiluminescence intensity with test compound added)−(chemiluminescence intensity of blank)}/{(chemiluminescence intensity of control)−(chemiluminescence intensity of blank))

Assay [1] has as its system human colorectal cancer cell line COLO-320DM. The assay can be described thus: MTT assay, combination of test compound and other anticancer agents. In kind it is cell-based. To be noted: Examples 9 to 14, COLO-320DM: test compound added at the concentration shown in FIGS. 9 to 14 to irinotecan (SN-38); survival with only irinotecan = 100%. The procedure: The ratio of residual cells in treatment of the human colorectal cancer cell line COLO-320DM with a combination of the compound prepared in each Compound Example (test compound or tankyrase inhibitory compound) and each of the anticancer agents was measured to evaluate the cell killing effect of the combination on the human colorectal cancer cell line COLO-320DM. The combinations of test compounds and anticancer agents are as follows.
(Example 8): combination of the compound prepared in Compound Example 5 and temozolomide, melphalan, gemcitabine, cytarabine (Ara-C), fluorouracil (5-FU), pemetrexed, mercaptopurine, methotrexate, irinotecan (SN-38), etoposide (VP-16), actinomycin D, daunorubicin, doxorubicin, bleomycin, mitoxantrone, oxaliplatin, carboplatin or cisplatin (Example 9): combination of the compound prepared in Compound Example 110 (G007-LK) and irinotecan (SN-38) (Example 10): combination of the compound prepared in Compound Example 11 and irinotecan (SN-38) (Example 11): combination of the compound prepared in Compound Example 19 and irinotecan (SN-38) (Example 12): combination of the compound prepared in Compound Example 101 and irinotecan (SN-38) (Example 13): combination of the compound prepared in Compound Example 1 and irinotecan (SN-38) (Example 14): combination of the compound prepared in Compound Example 113 and irinotecan (SN-38)
Commercially available compounds were used for temozolomide (manufactured by Sigma-Aldric), melphalan (manufactured by Signa-Aldrich), gemcitabine (Gemcitabine hydrochloride; manufactured by Sigma-Aldric), cytarabine (Cytosine β-D-arabinofuranoside (Ara-C); manufactured by Sigma-Aldrich), fluorouracil (5-Fluorouracil (5-FU); manufactured by Sigma-Aldrich), pemetrexed (Pemetrexed disodium heptahydrate; manufactured by Sigma-Aldrich), mercaptopurine (6-Mercaptopurine monohydrate; manufactured by Sigma-Aldrich), methotrexate (Methotrexate hydrate; manufactured by Sigma-Aldrich), irinotecan (7-Ethyl-10-hydroxycamptothecin (SN-38); manufactured by Sigma-Aldrich), etoposide (Etoposide (VP-16); manufactured by Enzo Life Sciences, Inc.), actinomycin D (manufactured by nacalai tesque), daunorubicin (Daunorubicin hydrochloride; Calbiochem), doxorubicin (Doxorubicin hydrochloride; manufactured by Sigma-Aldrich), bleomycin (Bleomycin sulfate; manufactured by Enzo Life Sciences, Inc.), mitoxantrone (Mitoxantrone dihydrochloride; manufactured by Sigma-Aldrich), oxaliplatin (manufactured by Sigma-Aldrich), carboplatin (manufactured by Sigma-Aldrich) and cisplatin (manufactured by Enzo Life Sciences, Inc.).
First, the human colorectal cancer cell line COLO-320DM was suspended in RPMI1640 medium (hereinafter, medium) containing inactivated 10% fetal bovine serum, and the cells were seeded in a 96-well microplate at 350 cells (75 μL) per well. The cells were subjected to stationary culture overnight in a CO2 incubator at 37° C. Thereafter, in Example 8, a medium (25 μL) containing a combination of the compound prepared in Compound Example 5 and each of the anticancer agents was added in triplicate in such a manner that the final concentrations of the test compound (compound prepared in Compound Example 5) were 0 nM or 30 nM and that the final concentrations of each anticancer agent were those shown in Table 14. In Examples 9 to 14, a medium (25 μL) containing a combination of the compound prepared in each of Compound Examples and each of the anticancer agents was added in triplicate in such a manner that the final concentrations of the test compound were 0 nM or those shown in FIGS. 9 to 14. As a control, 25 μL of a medium containing only dimethyl sulfoxide (DMSO) which is a solvent was added. […]
For orientation: Tetrazolium dyes change colour on reduction, which living cells bring about.

The target in a further assay is T2, tankyrase 1 (Homo sapiens, UniProt O95271).
T2 construct: tankyrase 1 (1,024-1, 327aa, SAM+PARP); made in house; host or cells: cell-free protein expression system
Nature of the assay: Tankyrase inhibitory activity test (ELISA, auto-poly(ADP-ribosyl)ation), TNKS1. Type of assay: biochemical. To be noted: Flag-tagged tankyrase 1 (SAM+PARP), read-out: TNKS1 (inhibitory activity against tankyrase 1), IC50 rating. The procedure:
as §1, §2, §3

Structures are written as SMILES.

T2 sequence (O95271 1024-1327): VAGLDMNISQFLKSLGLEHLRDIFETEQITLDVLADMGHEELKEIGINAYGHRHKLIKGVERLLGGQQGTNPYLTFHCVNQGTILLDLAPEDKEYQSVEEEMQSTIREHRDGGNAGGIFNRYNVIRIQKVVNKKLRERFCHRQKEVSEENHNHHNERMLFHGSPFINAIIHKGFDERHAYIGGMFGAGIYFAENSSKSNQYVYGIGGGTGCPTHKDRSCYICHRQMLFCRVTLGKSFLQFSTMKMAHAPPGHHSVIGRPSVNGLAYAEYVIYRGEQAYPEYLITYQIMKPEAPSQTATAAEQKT
T1 sequence (Q9H2K2 613-1166): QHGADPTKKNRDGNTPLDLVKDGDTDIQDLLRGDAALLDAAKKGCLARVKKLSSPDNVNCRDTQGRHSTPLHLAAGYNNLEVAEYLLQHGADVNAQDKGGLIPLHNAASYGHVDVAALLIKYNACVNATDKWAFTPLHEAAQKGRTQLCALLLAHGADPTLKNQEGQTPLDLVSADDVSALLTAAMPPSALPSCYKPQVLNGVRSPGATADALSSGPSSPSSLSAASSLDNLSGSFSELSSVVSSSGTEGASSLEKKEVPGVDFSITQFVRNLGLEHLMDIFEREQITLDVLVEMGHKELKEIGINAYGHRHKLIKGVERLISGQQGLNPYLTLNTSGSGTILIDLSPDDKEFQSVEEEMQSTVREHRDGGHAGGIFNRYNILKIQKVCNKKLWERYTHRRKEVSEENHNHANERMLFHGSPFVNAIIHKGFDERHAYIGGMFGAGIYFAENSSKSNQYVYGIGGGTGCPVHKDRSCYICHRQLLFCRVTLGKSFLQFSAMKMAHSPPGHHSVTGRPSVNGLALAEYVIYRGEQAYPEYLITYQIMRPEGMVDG

What is called IC50 is the concentration that inhibits the measured activity by half. Consider `CCOc1ccc(-c2n[nH]nc2[C@H]2NC(=O)c3cccc(C)c3N2)cc1` [Compound Example 101, (2R)-2-[5-(4-Ethoxyphenyl)-2H-1,2,3-triazol-4-yl]-8-methyl-2,3-dihydro-1H-quinazolin-4-one], for which the IC50 on tankyrase 2 and on tankyrase 1 was less than 0.02 µM throughout. For the same molecule, the cell survival rate entry in assay [1] is reported as “about 50%”.

For the molecule `COc1ccc(-c2c[nH]nc2C2NC(=O)c3cccc(C)c3N2)cc1` (stereo not drawn) [Compound Example 113, 2-[4-(4-Methoxyphenyl)-1H-pyrazol-3-yl]-8-methyl-2,3-dihydro-1H-quinazolin-4-one], the IC50 on tankyrase 2 was 0.02 to 0.2 µM; on tankyrase 1, less than 0.02 µM. The cell survival rate result in assay [1] was “about 50%”.
